Experimental data taken from paper PMC12410758, “A novel sulfamoylphenyl-dihydro-thiadiazole derivative as a dual EGFR and carbonic anhydrase inhibitor for cancer therapy” (PLOS One, 2025).
Read-outs that look alike come from different tables or passages of the source. Values belong to the compound of their own block, whether it stands above or below them.

What was measured:
MDA-MB-231 cells [1] = assay: MTT cytotoxicity, MDA-MB-231; settings: for IC50: read-out: In vitro Cytotoxicity IC50 (µM) MDA-231, mean ± SEM of three independent experiments; for Average of Relative viability of cells (%) MDA-231: 24 h
Protocol: (§1) The cell lines mentioned above were used to determine the inhibitory effects of compounds on cell growth
(§2) using the MTT assay. This colorimetric assay is based on the conversion of the yellow tetrazolium bromide (MTT) to a purple formazan derivative by mitochondrial succinate dehydrogenase in viable cells. Cell lines
(§3) Antibiotics added were 100 units/ml penicillin and 100µg/ml streptomycin at 37 C in a 5% Co2 incubator. The cell lines were seedesin a 96-well
(§4) plate at a density of 1.0x10^4 cells/well. at 37 C for 48 h under 5% Co2. After incubation the cells were treated
(§5) with different concentration of compounds and incubated for 24 h. After 24 h of drug treatment, 20 µl of MTT solution at 5mg/ml was added and incubated for 4 h. Dimethyl sulfoxide (DMSO) in volume of 100 µl is
(§6) added into each well to dissolve the purple formazan formed. The colorimetric assay is measured and recorded
(§7) The relative cell viability in percentage was
(§8) calculated as (A570 of treated samples/A570 of untreated sample) X 100.

MCF-7 cells = assay: MTT cytotoxicity, MCF-7; settings: for IC50: read-out: In vitro Cytotoxicity IC50 (µM) MCF-7, mean ± SEM of three independent experiments; for Average of Relative viability of cells (%) MCF-7: 24 h
Protocol: as §1, §2, §3, §4, §5, §6, §7, §8

[2] = MTT safety assay, non-cancerous Vero cells; format: cell-based; settings: African green monkey, mean ± SEM of three independent experiments, read-out: In vitro Cytotoxicity IC50 (µM) Vero
Protocol: The cell line (Vero) was obtained from ATCC via Holding company for biological products and vaccines
(VACSERA) , Cairo, Egypt.
The different cell line mentioned above were used to determine the inhibitory effects of compounds on c ell growth using the MTT assay. This colorimetric assay is based on the conversion of the yellow tetrazolium
bromide (MTT) to a purple formazan derivative by mitochondrial succinate dehydrogenase in viable cells.
Antibiotics added were 100
units/ml penicillin and 100µg/ml streptomycin at 37 C in a 5% Co2 incubator. The cellswere seedesin a 96-
well plate at a density of 1.0x10^4 cells/well.at 37 C for 48 h under 5% Co2. After incubation the cells were treated with different concentration of compounds and incubated for 24 h. After 24 h of drug treatment, 20 µl
of MTT solution at 5mg/ml was added and incubated for 4 h. Dimethyl sulfoxide(DMSO) in volume of 100µl
is added into each well to dissolve the purple formazan formed. The colorimetric assay is measured and
The relative cell viability in percentage
was calculated as (A570 of treated samples/A570 of untreated sample) X 100.

hCA_XII = target: T1, hCA_XII (Homo sapiens, UniProt O43570); assay: In vitro carbonic anhydrase (XII) inhibition (assay kit, BPS Bioscience); format: biochemical; settings: mean ± SEM of three independent experiments
T1 construct: purchased BPS Bioscience, USA
T1 sequence (O43570 25-354): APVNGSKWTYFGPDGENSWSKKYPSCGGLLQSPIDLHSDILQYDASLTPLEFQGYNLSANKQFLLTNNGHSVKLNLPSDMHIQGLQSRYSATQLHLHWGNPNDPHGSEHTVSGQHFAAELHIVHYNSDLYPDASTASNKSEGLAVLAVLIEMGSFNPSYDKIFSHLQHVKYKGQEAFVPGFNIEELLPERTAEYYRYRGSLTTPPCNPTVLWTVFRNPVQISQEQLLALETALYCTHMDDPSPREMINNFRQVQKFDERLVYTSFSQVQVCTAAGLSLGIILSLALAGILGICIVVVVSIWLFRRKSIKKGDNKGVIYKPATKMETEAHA

MDA-MB-231 cells [3] = assay: Cell cycle analysis, PI flow cytometry; format: cell-based; settings: 16.13 µM, 48 h
MDA-MB-231 cells [4] = assay: Apoptosis analysis, Annexin V-FITC/PI flow cytometry
Protocol: Apoptosis detection was carried out using Annexin V fluorescein isothiocyanate (V-FITC)/PI kit according to the reported procedures. MDA-MB-231cells cells were seeded and incubated for 24 h, then treated with
The cells were then collected, washed 3 times with PBS, fixed with ice-
cold absolute ethanol (70%) and stained with Annexin-V-FITC/propidium iodide (PI) using a double staining
kit for 20 min in the dark. Epics XL-MCL™ Flow Cytometer was used to evaluate the apoptosis.

MDA-MB-231 cells [5] = assay: qRT-PCR of apoptotic markers in MDA-MB-231 cells; settings: 16.13 µM, 72 h, control set to 1, mean ± SEM
Protocol: Quantitative Reverse Transcription-Poly¬merase Chain Reaction (qRT-PCR) Analysis
Cells were seeded in T-25 cm2 tissue culture flasks 24h before treatment with DMSO vehicle (0.01%) or
Total RNA was extracted, reverse transcribed, and assayed
for BAX, Bcl-2, caspases-8, and caspases-9 genes expression by quantitative RT-PCR. ß-actin serves as the
housekeeping gene. The quantity of BAX, Bcl-2, Caspase-8 and Caspase-9 mRNA in control and compound
Total RNA from vehicle-treated control
(0.01% DMSO) and 14-treated MDA-231 cells were extracted as-per the manufacturer instructi¬ons (RNeasy
mini kit, Qiagen, Germany). After RNA extraction, cDNA was prepared using the Revert Aid First Strand
cDNA Synthesis kit (Thermo Scientific, USA). Amplification of target cDNA for apoptosis markers and ß-
actin [as a normalization (housekeeping) gene] was done using one-step RT-PCR SYBR® Green kit Master Mix (Bio‐Rad Laboratories, USA) on Rotor-Gene Q real-time PCR thermal cycler instrument. cDNA (2 μl
aliquots) was mixed with 1 μl of forward primer, 1 μl reverse primer (Table below), 10 μl master mixture,
and the reaction volume was completed to 20 μl with nuclease-free water. All experiments were performed in

EGFR [6] = target: T2, EGFR (Homo sapiens, UniProt P00533); assay: In vitro EGFR inhibition (EGFR Kinase Assay Kit, BPS Bioscience); format: biochemical; settings: mean ± SEM of three independent experiments
T2 construct: purchased BPS Bioscience, USA
T2 sequence (P00533 25-1210): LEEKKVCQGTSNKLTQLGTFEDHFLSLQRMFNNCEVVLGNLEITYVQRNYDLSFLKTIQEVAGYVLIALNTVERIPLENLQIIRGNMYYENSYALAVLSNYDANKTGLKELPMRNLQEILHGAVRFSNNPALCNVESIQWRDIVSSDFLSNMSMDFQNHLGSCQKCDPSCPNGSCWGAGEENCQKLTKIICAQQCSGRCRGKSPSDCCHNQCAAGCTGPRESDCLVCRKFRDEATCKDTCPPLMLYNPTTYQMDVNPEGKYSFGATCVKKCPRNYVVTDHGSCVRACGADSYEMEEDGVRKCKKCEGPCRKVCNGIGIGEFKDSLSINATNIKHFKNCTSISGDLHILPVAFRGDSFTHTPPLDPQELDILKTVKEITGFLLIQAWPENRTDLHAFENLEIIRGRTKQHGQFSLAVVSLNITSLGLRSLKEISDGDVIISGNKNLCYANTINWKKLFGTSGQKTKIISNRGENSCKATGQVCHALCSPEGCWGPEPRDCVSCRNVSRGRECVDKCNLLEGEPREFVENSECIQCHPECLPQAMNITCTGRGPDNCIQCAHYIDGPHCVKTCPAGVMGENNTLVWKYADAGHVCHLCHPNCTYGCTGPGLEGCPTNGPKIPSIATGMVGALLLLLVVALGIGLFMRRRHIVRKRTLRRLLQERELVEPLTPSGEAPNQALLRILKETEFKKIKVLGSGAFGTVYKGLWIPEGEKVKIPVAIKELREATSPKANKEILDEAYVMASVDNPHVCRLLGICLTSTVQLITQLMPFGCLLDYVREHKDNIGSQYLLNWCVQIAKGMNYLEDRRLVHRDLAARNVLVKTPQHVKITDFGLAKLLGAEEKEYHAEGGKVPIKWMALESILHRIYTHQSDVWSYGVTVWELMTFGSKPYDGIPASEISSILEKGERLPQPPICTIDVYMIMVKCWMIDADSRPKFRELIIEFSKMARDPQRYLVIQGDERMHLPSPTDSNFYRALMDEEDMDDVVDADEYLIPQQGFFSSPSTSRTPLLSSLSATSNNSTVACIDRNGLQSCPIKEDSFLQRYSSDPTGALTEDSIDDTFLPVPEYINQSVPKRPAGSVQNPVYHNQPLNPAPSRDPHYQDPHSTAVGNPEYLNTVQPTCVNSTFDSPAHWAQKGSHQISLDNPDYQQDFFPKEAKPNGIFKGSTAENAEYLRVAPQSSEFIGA
Protocol: (§9) • The in vitro inhibitory activity of the tested compounds against EGFR was accomplished using EGFR
(§10) Kinase Assay Kit (BPS Bioscience, USA) at different dilutions of 1000, 300, 100, 30, 10, 3, 1, and 0.3 nM.
In vitro carbonic anhydrase inhibition

hCA_IX = target: T3, hCA_IX (Homo sapiens, UniProt Q16790); assay: In vitro carbonic anhydrase (IX) inhibition (assay kit, BPS Bioscience); format: biochemical; settings: mean ± SEM of three independent experiments
T3 construct: purchased BPS Bioscience, USA
Protocol: as §9, §10
In vitro carbonic anhydrase inhibition

MDA-MB-231 cells [7] = tested on: MDA-MB-231 cells; design: method as in PMID 35896557; settings: cited from earlier work
MDA-MB-231 = tested on: MDA-MB-231; design: method as in PMID 35896557; settings: read-out: anti-proliferative IC50, MDA-MB-231; cited from earlier work
T-47D = tested on: T-47D; design: method as in PMID 35896557; settings: read-out: anti-proliferative IC50, T-47D; cited from earlier work
EGFR [8] = target: T2, EGFR; design: method as in PMID 35896557; settings: read-out: EGFR inhibition IC50; cited from earlier work

Structure (SMILES): CC(=O)Nc1nnc(S(N)(=O)=O)s1 [Acetazolamide, reference compound]
IC50 (MDA-MB-231 cells [1]): 7.64 ± 0.4 µM
IC50 (MCF-7 cells): 7.26 ± 0.3 µM
IC50 at 24 h [2]: 77.57 ± 0.57 µM

IC50 (hCA_XII): 58 ± 0.3 nM
IC50 (EGFR [6]): 10.1 ± 0.29 nM
IC50 (hCA_IX): 79 ± 0.3 nM
Structure (SMILES): CCOC(=O)c1nn(-c2ccc(S(N)(=O)=O)cc2)/c(=N/N=C(\C)c2ccc(NC(C)=O)cc2)s1 [Compound 14, Ethyl (Z)-5-(((E)-1-(4-acetamidophenyl)ethylidene)hydrazineylidene)-4-(4-sulfamoylphenyl)-4,5-dihydro-1,3,4-thiadiazole-2-carboxylate]
Cell cycle distribution (%) % G2/M (MDA-MB-231 cells [3]; untreated 10.59): 7.94%
Cell cycle distribution (%) %Sub-G1 (MDA-MB-231 cells [3]; untreated 19.48): 19.18%
Cell cycle distribution (%) %S (MDA-MB-231 cells [3]; untreated 24.95): 23.78%
Cell cycle distribution (%) %G1 (MDA-MB-231 cells [3]; untreated 44.98): 49.10%
Apoptosis Late (MDA-MB-231 cells [4]; 16.13 µM, 48 h, MDA-MB-231, untreated 0.32): 58.27%
Necrosis (MDA-MB-231 cells [4]; 16.13 µM, 48 h, MDA-MB-231, untreated 0.45): 0.03%
Apoptosis Early (MDA-MB-231 cells [4]; 16.13 µM, 48 h, MDA-MB-231, untreated 3.84): 22.50%
viability at 16.13 µM (MDA-MB-231 cells [4]; Homo sapiens, MDA-MB-231, 48 h, read-out: Viable cells): 19.2%
Gene expression (Fold Change) BAX (MDA-MB-231 cells [5]): 3.06 ± 0.18 Fold Change
Gene expression (Fold Change) BAX/Bcl-2 ratio (MDA-MB-231 cells [5]): 5.56 ± 0.69 Fold Change
Gene expression (Fold Change) Bcl-2 (MDA-MB-231 cells [5]): 0.55 ± 0.05 Fold Change
Gene expression (Fold Change) Caspases-8 (MDA-MB-231 cells [5]): 2.37 ± 0.07 Fold Change
Gene expression (Fold Change) Caspases-9 (MDA-MB-231 cells [5]): 2.26 ± 0.15 Fold Change
Average of Relative viability of cells (%) MDA-231 (MDA-MB-231 cells [1]; 1.56 µM): 100%
Average of Relative viability of cells (%) MDA-231 (MDA-MB-231 cells [1]; 3.125 µM): 86.3%
Average of Relative viability of cells (%) MDA-231 (MDA-MB-231 cells [1]; 6.25 µM): 69.9%
Average of Relative viability of cells (%) MDA-231 (MDA-MB-231 cells [1]; 12.5 µM): 51.0%
Average of Relative viability of cells (%) MDA-231 (MDA-MB-231 cells [1]; 25 µM): 38.6%
Average of Relative viability of cells (%) MDA-231 (MDA-MB-231 cells [1]; 50 µM): 26.1%
Average of Relative viability of cells (%) MDA-231 (MDA-MB-231 cells [1]; 100 µM): 18.5%
IC50 (MDA-MB-231 cells [1]): 16.1 ± 1.2 µM
Average of Relative viability of cells (%) MCF-7 (MCF-7 cells; 1.56 µM): 100%
Average of Relative viability of cells (%) MCF-7 (MCF-7 cells; 3.125 µM): 90.3%
Average of Relative viability of cells (%) MCF-7 (MCF-7 cells; 6.25 µM): 71.7%
Average of Relative viability of cells (%) MCF-7 (MCF-7 cells; 12.5 µM): 57.6%
Average of Relative viability of cells (%) MCF-7 (MCF-7 cells; 25 µM): 46.5%
Average of Relative viability of cells (%) MCF-7 (MCF-7 cells; 50 µM): 35.1%
Average of Relative viability of cells (%) MCF-7 (MCF-7 cells; 100 µM): 24.4%
IC50 (MCF-7 cells): 22.6 ± 1.5 µM
IC50 at 24 h [2]: 148.3 ± 1.22 µM

Structure (SMILES): COc1ccc(/C=C2/SC(N3N=C(c4cccc5ccccc45)CC3c3ccc(F)cc3)=NC2=O)cc1O (centres unmarked) [compound III]
apoptosis induction (MDA-MB-231 cells [7]): induced apoptosis
cell cycle arrest phase (MDA-MB-231 cells [7]): G2/M phase
IC50 (MDA-MB-231): 3.14 µM
IC50 (T-47D): 0.62 µM
IC50 (EGFR [8]): 0.267 µM
